Tests used:
[1] = test system: EGFR; assay: Western blot of EGFR phosphorylation (Tyr-1068); assay type: cell-based, human; settings: EGF 25 ng/mL, absence of iEFs, 12 hours
Procedure: For these experiments, 1×10^6 cells/well were plated in 6-well plates in growth media for 12 hours followed by migration media for another 12 hours. Fresh migration media was added to the top three wells in each plate (1, 2, 3) while EGF (25 ng/mL) and supplemental migration media were added to the bottom three wells (4, 5, 6). One of the cell-containing 6-well plates was then treated with iEFs for 12 hours. Immediately after treatment, the plates were placed on ice and each well was then washed three times with 1× tris-buffered saline (TBS, Corning Inc.) solution. TBS was aspirated out and 1 mL ice-cold radioimmunoprecipitation assay (RIPA) buffer, supplemented with a protease inhibitor and a phosphatase inhibitor, was added to each well. Cells were scraped out using a cold plastic cell scraper and the cell suspension was transferred into a pre-cooled microcentrifuge tube. The cell suspension was then spun at 16000 g for 20 minutes in a 4° C. precooled centrifuge. The centrifuge tubes were placed on ice and the supernatants were transferred to fresh tubes and kept on ice. The pellet at the bottom of each microcentrifuge tube was discarded. Protein in each tube was estimated against a standard bovine serum albumin (BSA) solution (1.42 mg/mL) using the DCTM Protein Assay Kit II (Bio-Rad, 500-0112). […]

[2] = test system: MDA-MB-231 cells; assay: Microfluidic bi-directional migration (MBDM) assay, mean migration speed and persistence; assay type: cell-based, human
Text: To quantify the effects of iEF treatment on directed cell migration speed and persistence, a custom microfluidic bi-directional microtrack (MBDM) assay was developed that enables real-time monitoring with time-lapse microscopy of cell motility.
In this study, the EF sensing mechanisms of breast cancer cells in response to asymmetric iEFs (<100 μV/cm) was investigated. Using a MBDM assay, changes in the speed and persistence of spontaneously migrating MDA-MB-231 breast cancer cells were observed. This cell type was selected for these studies because it is a putative metastatic breast cancer cell line that is also responsive to gradients of a chemoattractant such as EGF (Wang S J, et al. (2004) Exp Cell Res 300 (1):180-189; Wu A, et al. (2013) Proc Natl Acad Sci U S A 110(40):16103-16108). […] This configuration enables direct comparison of cell movement in response to iEFs applied primarily with the direction of cell migration (“parallel”) or against the direction of cell migration (“anti-parallel”) within the same microfluidic device. Here, the field direction is defined as the direction that has the higher peak magnitude, as well as higher time-average field strength.
To calculate persistence, the following protocol was followed for each cell tracked in a microtrack of the MBDM assay. A cell starts at position Pt at time t. After a single time increment, dt, the cell moves to a new position, Pt+dt. The distance traveled during this time is the absolute difference in the two positions denoted as Li: Li=|Pt+dt−Pt|
The total distance traveled is then the sum of all distances traveled during N time increments denoted as Lt. Additionally, the total time of travel is the number of time increments multiplied by the size of the time increments denoted as Tt.
The displacement is simply the difference between the final and initial position: Ld=|PFinal−PInitial|
The MBDM assay was designed to have three ports separated by 700 μm long arrays of parallel microtracks (FIG. 1D). The dimension of each port was 50 mm×15 mm. Cells were seeded in the center port and the top and bottom ports were designated as cell collection port and/or chemokine source reservoir port depending on the experimental condition. Microchannels were designed to have a square cross-section of 20 μm×20 μm. The cross-section dimensions were on the same order as the size of single cells and mimic the dimensions of pre-existing microtracks available to cells in-vivo (Kraning-Rush C M, et al. (2013) lntegr Biol (Camb). 5 (3):606-616). Moreover, these migratory tracks are representative of physiologically relevant matrix metalloproteinase independent cancer-cell migration mode during metastasis (Friedl P & Alexander S (2011) Cell 147 (5):992-1009; Wolf K, et al. (2009) Semin Cell Dev Biol. 20 (8):931-941; Friedl P & Wolf K (2003) Nat Rev Cancer. 3 (5):362; Wolf K, et al. (2007) Nat Cell Biol. 9 (8):893; Wolf K, et al. (2003) J Cell Biol. 160 (2):267-277). The bi-directional design of this assay allows cells to migrate in either direction from the seeding port and provides a better understanding and quantification of the directional bias of external cues such as chemokine gradients and the directional effects of applied iEFs. The large ports for cell seeding ensure uniform seeding density, excellent cell viability, and repeatability.
Cells were washed in culture plates with 1×PBS solution, treated with 0.05% trypsin-EDTA solution (Sigma-Aldrich), and then counted using a hemocytometer. Cells (2×10^5) suspended in migration media were seeded in the middle port (seeding port) with an extremely small flow from the collection ports to the seeding port, which equilibrated in less than 15 minutes. The cells inside the devices were then incubated for 12 hours in migration media following which the media was aspirated and replaced with new media based on the experimental conditions. […]

In the case of epidermal growth factor [EGF], the EGFR phosphorylation [1] is reported as “resulted in EGFR phosphorylation”, the mean migration speed ([2]; EGF gradient (25 ng/mL) alone, no iEF, no inhibitor) is reported as 0.43 μm/min and the average persistence ([2]; stable EGF gradient alone) is reported as 0.84. The “increase of persistence compared to untreated control” value ([2]; stable EGF gradient alone) was 6% and the “mean migration speed compared to untreated controls” value ([2]; stable EGF gradient alone) was “increased significantly”.

From patent publication US12306176B2, “Microfluidic bi-directional migration assay” (Ohio State Innovation Foundation, priority 2017, dated 2025)
